Measured values: PMC7443224, “An UPLC-MS/MS Method for Simultaneous Quantification of the Components of Shenyanyihao Oral Solution in Rat Plasma” (BioMed Research International, 2020)
“And” between values parts separate entries of the source, which are not always exact repeats. Identical values can stand only once.

Test: Pharmacokinetic study in rat plasma after oral administration of Shenyanyihao oral solution (UPLC-MS/MS, noncompartmental)
Assay type: in vivo, Sprague-Dawley rats
Settings: for Cmax / Tmax / half-life / MRT: male, Sprague-Dawley; for Cmax: plasma; for MRT: read-out: MRT0‐∞
Description: Male Sprague-Dawley rats (180–220 g) were purchased from Shanghai SLAC Laboratory Animal Co., Ltd. (Shanghai, China) and housed in an environmentally controlled room with a natural light-dark cycle for 7 days before the experiment was carried out. The male Sprague-Dawley rats were randomly given a dose of 10 g/kg/day of Shenyanyihao oral solution by oral administration for pharmacokinetic experiments. All animal experiments were carried out according to the Guidelines for the Care and Use of Laboratory Animals and were approved by the Animal Ethics Committee of the Second Military Medical University.
The protein precipitation with methanol was applied for sample preparation. 50 μl of plasma spiked with 50 μl of mixed IS solution were thoroughly mixed with 100 μl methanol by vortexing for 30 s. The mixture was centrifuged at 12,000 rpm for 5 min. An aliquot of 100 μl from the supernatant was transferred and subsequently evaporated to dryness by vacuum concentration. Five μl of the supernatant was transferred for the UPLC-MS/MS analysis.
The analytes in plasma were measured by a simple and sensitive UPLC-MS/MS method. Chromatographic analysis was performed on an Agilent 1290 Infinity UPLC system consisting of a binary pump, a surveyor autosampling system, and a thermostatted column compartment. An Agilent Poroshell 120 EC-C18 column (3.0 mm × 100 mm, 2.7 μm) was used for chromatographic separation. The mobile phases of A (acetonitrile) and B (0.1% formic acid aqueous solution) were eluted at a flow rate of 0.4 ml/min with the following gradient conditions: 0-5 min, 50% A; 5-6 min, 50%-90% A; and 6-10 min, 90% A. The column temperature was maintained at 25°C, the autosampler was conditioned at 4°C, and the injection volume was 5 μl. The analysis time was 10 min per sample. An Agilent 6470 tandem mass spectrometer (Agilent Technologies, USA) equipped with an Agilent Jet Stream Technology (AJS) electrospray source interface (ESI) was used for MS detection. The mass spectrometric detection was optimized simultaneously in the positive and negative ion modes by multiple reaction monitoring (MRM). The main MS parameters of the ionized chamber are as follows: capillary voltage at 4000 V (positive)/3500 V (negative), gas temperature at 350°C, drying gas flow at 11 l/min, nebulizer pressure at 40 psi, sheath gas temperature at 400°C, and sheath gas flow at 11 l/min. Data acquisition and analysis were performed using the Agilent MassHunter WorkStation version B.07.00.
The rats were administered orally with Shenyanyihao oral solution. Blood samples from the ophthalmic venous plexus taken at 0.08, 0.17, 0.25, 0.33, 0.5, 1, 1.5, 2, 4, 6, 8, 12, 24, and 48 h after oral administration and at 0 h (predose) were collected (0.2 ml) into heparinized centrifuge tubes. The blood samples were immediately centrifuged at 4000 rpm at 4°C for 5 min, and the supernatant plasma was transferred into another tube and stored at -80°C until treatment.
Pharmacokinetic parameters were analyzed by a noncompartmental method using the WinNonlin7.0 pharmacokinetic program (Pharsight Corp., USA). The maximum concentration (Cmax) and time to reach the maximum concentration (Tmax ) were measured from values obtained from the concentration-time curve. All results were expressed as mean ± standard deviation (SD).

[1] = rat, po, 10 g/kg/day, rat plasma, oral administration of Shenyanyihao oral solution 10 g/kg/day, n = 6, mean ± SD
[2] = rat plasma, oral administration of Shenyanyihao oral solution 10 g/kg/day, n = 6, mean ± SD

MRT0‐∞ [2] [h]	t 1/2 [2] [h]	AUC0‐t (rat, in vivo, po, 10 g/kg/day) [ng/ml∗h]	AUC0‐∞ (rat, in vivo, po, 10 g/kg/day) [ng/ml∗h]	MRT0‐∞ (rat, in vivo, po, 10 g/kg/day) [h]	V d (rat, in vivo, po, 10 g/kg/day) [L/kg]	T max [2] [h]	C max (rat plasma, oral administration of Shenyanyihao oral solution 10 g/kg/day, n = 6, mean ± SD, listed as stachydine) [ng/mL]	Structure (SMILES)	Cmax [1] [ng/mL]	Tmax [2] [h]	half-life [2] [h]	MRT [2] [h]	AUC0‐t [2]	AUC0‐∞ [2]	AUMC0‐∞ [2] [ng/ml∗h^2]	CL [2] [mL/min/kg]	V d [2] [L/kg]	C max [2] [ng/mL]
–	–	–	–	–	–	–	–	O=c1cc(-c2ccccc2)oc2cc(O)c(O)c(O)c12 [Baicalein, baicalein]	14.2 ± 2.59	3.6 ± 0.89	11.7 ± 4.78	15.2 ± 5.91	106.77 ± 46.19 ng/ml∗h	128.95 ± 53.59 ng/ml∗h	2190.95 ± 1741.10	145 ± 50.5	131.54 ± 23.79	–
–	–	–	–	–	–	–	–	O=C(O)[C@H]1O[C@@H](Oc2cc3oc(-c4ccccc4)cc(=O)c3c(O)c2O)[C@H](O)[C@@H](O)[C@@H]1O [Baicalin, baicalin]	> 2500	2.8 ± 1.1	5.01 ± 0.52	8.71 ± 2	26525.1 ± 15523.7 ng/ml∗h	26566.8 ± 15520.4 ng/ml∗h	229094.2 ± 146621.6	28.5 ± 15	12.89 ± 8.01	2983.4 ± 1344.3
–	–	–	–	–	–	–	–	O=C(/C=C/c1ccc(O)c(O)c1)O[C@@H]1C[C@](O)(C(=O)O)C[C@@H](O)[C@H]1O [Chlorogenic acid, chlorogenic acid]	3.53 ± 0.52	–	16.7 ± 3.32	15.4 ± 3.31	17.05 ± 2.86 ng/ml∗h	21.95 ± 3.34 ng/ml∗h	338.84 ± 99.46	697.2 ± 113	1001.03 ± 202.53	–
–	–	76.39 ± 21.43	95.70 ± 25.36	12.50 ± 4.16	18.01 ± 5.2	–	–	COc1cc(/C=C/C(=O)O)ccc1O [Ferulic acid, ferulic acid]	–	–	–	–	–	–	–	–	–	–
–	–	–	–	–	–	–	–	O=c1c(O[C@@H]2O[C@H](CO)[C@@H](O)[C@H](O)[C@H]2O)c(-c2ccc(O)c(O)c2)oc2cc(O)cc(O)c12 [Isoquercitrin, isoquercitrin]	1.65 ± 0.23	0.5	26.4 ± 3.89	33.7 ± 3.63	4.75 ± 0.68 ng/ml∗h	8.98 ± 1.33 ng/ml∗h	304.35 ± 69.29	56.7 ± 8.33	127.91 ± 13.82	–
12.76 ± 4.47	12.33 ± 3.92	–	–	–	–	1.40 ± 0.22	–	O=C(/C=C/c1ccc(O)c(O)c1)O[C@H]1[C@H](O[C@@H]2O[C@H](CO)[C@@H](O)[C@H](O)[C@H]2O)[C@@H](O)[C@H](OCCc2ccc(O)c(O)c2)O[C@@H]1CO [Plantamajoside, plantamajoside]	–	–	–	–	3.99 ± 0.44 ng/ml∗h	5.01 ± 0.71 ng/ml∗h	66.31 ± 28.63	78 ± 12.8	79.97 ± 18.00	1.31 ± 0.23
–	–	–	–	–	–	–	–	O=C(O)c1ccc(O)c(O)c1 [Protocatechuic acid, protocatechuic acid]	26.2 ± 11.6	0.5	11.3 ± 2.23	6.6 ± 2.26	41.96 ± 11.42 ng/ml∗h	45.80 ± 12.60 ng/ml∗h	307.02 ± 152.54	25.3 ± 7.83	24.09 ± 4.86	–
12.82 ± 0.25	9.09 ± 0.51	–	–	–	–	3.20 ± 1.10	> 2500	C[N+]1(C)CCC[C@H]1C(=O)[O-] [Stachydrine, stachydrine]	–	–	–	–	39256.8 ± 4031.7 ng/ml∗h	40196.0 ± 4088.2 ng/ml∗h	515393.7 ± 55002.7	1 ± 0.17	0.76 ± 0.11	2673.0 ± 163.0

Structure (SMILES)	MRT0‐∞ [2] [h]	t 1/2 [2] [h]	AUC0‐t (rat, in vivo, po, 10 g/kg/day) [ng/ml∗h]	AUC0‐∞ (rat, in vivo, po, 10 g/kg/day) [ng/ml∗h]	MRT0‐∞ (rat, in vivo, po, 10 g/kg/day) [h]	V d (rat, in vivo, po, 10 g/kg/day) [L/kg]	T max [2] [h]	C max (rat plasma, oral administration of Shenyanyihao oral solution 10 g/kg/day, n = 6, mean ± SD, listed as stachydine) [ng/mL]	Cmax [1] [ng/mL]	Tmax [2] [h]	half-life [2] [h]	MRT [2] [h]	AUC0‐t [2]	AUC0‐∞ [2]	AUMC0‐∞ [2] [ng/ml∗h^2]	CL [2] [mL/min/kg]	V d [2] [L/kg]	C max [2] [ng/mL]
O=C(O)[C@H](O)Cc1ccc(O)c(O)c1 [Danshensu]	3.56 ± 1.71	3.91 ± 2.34	–	–	–	–	–	–	–	–	–	–	556.04 ng/ml∗h and 556.04 ± 165.66 ng/ml∗h	569.72 ng/ml∗h and 569.72 ± 165.31 ng/ml∗h	2049.56 ± 1061.35	41.2 ± 14.3	13.67 ± 8.51	181.79 ± 59.58
